# From PMC9571063 (Molecules, 2022)
# Read-outs that look alike come from different tables or passages of the source.
# Key:
# [1] = target: T1, ABL1(M351T)-phosphorylated (Homo sapiens, UniProt P00519, M351T); assay: KINOMEscan; assay type: binding; details: read-out: Percent Control
# T1 construct: purchased Eurofins DiscoverX KINOMEscan (scanMAX 468)
# [2] = target: T2, ABL1(Y253F)-phosphorylated (Homo sapiens, UniProt P00519, Y253F); assay: KINOMEscan; assay type: binding; details: read-out: Percent Control
# T2 construct: purchased Eurofins DiscoverX KINOMEscan (scanMAX 468)
# [3] = target: T3, ACVR1B (Homo sapiens, UniProt P36896); assay: KINOMEscan; assay type: binding; details: read-out: Percent Control
# T3 construct: purchased Eurofins DiscoverX KINOMEscan (scanMAX 468)
# [4] = target: T4, ALK(L1196M) (Homo sapiens, UniProt Q9UM73, L1196M); assay: KINOMEscan; assay type: binding; details: read-out: Percent Control
# T4 construct: purchased Eurofins DiscoverX KINOMEscan (scanMAX 468)
# [5] = target: T5, BUB1 (Homo sapiens, UniProt O43683); assay: KINOMEscan; assay type: binding; details: read-out: Percent Control
# T5 construct: purchased Eurofins DiscoverX KINOMEscan (scanMAX 468)
# [6] = target: T6, CAMK2A (Homo sapiens, UniProt Q9UQM7); assay: KINOMEscan; assay type: binding; details: read-out: Percent Control
# T6 construct: purchased Eurofins DiscoverX KINOMEscan (scanMAX 468)
# [7] = target: T7, CDC2L5 (Homo sapiens, UniProt Q14004); assay: KINOMEscan; assay type: binding; details: read-out: Percent Control
# T7 construct: purchased Eurofins DiscoverX KINOMEscan (scanMAX 468)
# [8] = target: T8, CDKL1 (Homo sapiens, UniProt Q00532); assay: KINOMEscan; assay type: binding; details: read-out: Percent Control
# T8 construct: purchased Eurofins DiscoverX KINOMEscan (scanMAX 468)
# [9] = target: T9, CSNK1A1L (Homo sapiens, UniProt Q8N752); assay: KINOMEscan; assay type: binding; details: read-out: Percent Control
# T9 construct: purchased Eurofins DiscoverX KINOMEscan (scanMAX 468)
# [10] = target: T10, DAPK2 (Homo sapiens, UniProt Q9UIK4); assay: KINOMEscan; assay type: binding; details: read-out: Percent Control
# T10 construct: purchased Eurofins DiscoverX KINOMEscan (scanMAX 468)
# [11] = target: T11, EGFR(L747-E749del, A750P) (Homo sapiens, UniProt P00533, A750P/DEL747-749); assay: KINOMEscan; assay type: binding; details: read-out: Percent Control
# T11 construct: purchased Eurofins DiscoverX KINOMEscan (scanMAX 468)
# [12] = target: T12, EGFR(L858R,T790M) (Homo sapiens, UniProt P00533, L858R/T790M); assay: KINOMEscan; assay type: binding; details: read-out: Percent Control
# T12 construct: purchased Eurofins DiscoverX KINOMEscan (scanMAX 468)
# [13] = target: T13, EPHA7 (Homo sapiens, UniProt Q15375); assay: KINOMEscan; assay type: binding; details: read-out: Percent Control
# T13 construct: purchased Eurofins DiscoverX KINOMEscan (scanMAX 468)
# [14] = target: T14, EPHB1 (Homo sapiens, UniProt P54762); assay: KINOMEscan; assay type: binding; details: read-out: Percent Control
# T14 construct: purchased Eurofins DiscoverX KINOMEscan (scanMAX 468)
# [15] = target: T15, ERK4 (Homo sapiens, UniProt P31152); assay: KINOMEscan; assay type: binding; details: read-out: Percent Control
# T15 construct: purchased Eurofins DiscoverX KINOMEscan (scanMAX 468)
# [16] = target: T16, FAK (Homo sapiens, UniProt Q05397); assay: KINOMEscan; assay type: binding; details: read-out: Percent Control
# T16 construct: purchased Eurofins DiscoverX KINOMEscan (scanMAX 468)
# [17] = target: T17, FER (Homo sapiens, UniProt P16591); assay: KINOMEscan; assay type: binding; details: read-out: Percent Control
# T17 construct: purchased Eurofins DiscoverX KINOMEscan (scanMAX 468)
# [18] = target: T18, FRK (Homo sapiens, UniProt P42685); assay: KINOMEscan; assay type: binding; details: read-out: Percent Control
# T18 construct: purchased Eurofins DiscoverX KINOMEscan (scanMAX 468)
# [19] = target: T19, LRRK2 (Homo sapiens, UniProt Q5S007); assay: KINOMEscan; assay type: binding; details: read-out: Percent Control
# T19 construct: purchased Eurofins DiscoverX KINOMEscan (scanMAX 468)
# [20] = target: T20, MERTK (Homo sapiens, UniProt Q12866); assay: KINOMEscan; assay type: binding; details: read-out: Percent Control
# T20 construct: purchased Eurofins DiscoverX KINOMEscan (scanMAX 468)
# [21] = target: T21, MLCK (Homo sapiens, UniProt Q32MK0); assay: KINOMEscan; assay type: binding; details: read-out: Percent Control
# T21 construct: purchased Eurofins DiscoverX KINOMEscan (scanMAX 468)
# [22] = target: T22, MST1 (Homo sapiens, UniProt Q13043); assay: KINOMEscan; assay type: binding; details: read-out: Percent Control
# T22 construct: purchased Eurofins DiscoverX KINOMEscan (scanMAX 468)
# [23] = target: T23, MST1R (Homo sapiens, UniProt Q04912); assay: KINOMEscan; assay type: binding; details: read-out: Percent Control
# T23 construct: purchased Eurofins DiscoverX KINOMEscan (scanMAX 468)
# [24] = target: T24, p38-alpha (Homo sapiens, UniProt Q16539); assay: KINOMEscan; assay type: binding; details: read-out: Percent Control
# T24 construct: purchased Eurofins DiscoverX KINOMEscan (scanMAX 468)
# [25] = target: T25, p38-delta (Homo sapiens, UniProt O15264); assay: KINOMEscan; assay type: binding; details: read-out: Percent Control
# T25 construct: purchased Eurofins DiscoverX KINOMEscan (scanMAX 468)
# [26] = target: T26, PIK3CA(H1047L) (Homo sapiens, UniProt P42336, H1047L); assay: KINOMEscan; assay type: binding; details: read-out: Percent Control
# T26 construct: purchased Eurofins DiscoverX KINOMEscan (scanMAX 468)
# [27] = target: T27, PIK3CB (Homo sapiens, UniProt P42338); assay: KINOMEscan; assay type: binding; details: read-out: Percent Control
# T27 construct: purchased Eurofins DiscoverX KINOMEscan (scanMAX 468)
# [28] = target: T28, PLK1 (Homo sapiens, UniProt P53350); assay: KINOMEscan; assay type: binding; details: read-out: Percent Control
# T28 construct: purchased Eurofins DiscoverX KINOMEscan (scanMAX 468)
# [29] = target: T29, RIPK4 (Homo sapiens, UniProt P57078); assay: KINOMEscan; assay type: binding; details: read-out: Percent Control
# T29 construct: purchased Eurofins DiscoverX KINOMEscan (scanMAX 468)
# [30] = target: T30, RIPK5 (Homo sapiens, UniProt Q6XUX3); assay: KINOMEscan; assay type: binding; details: read-out: Percent Control
# T30 construct: purchased Eurofins DiscoverX KINOMEscan (scanMAX 468)
# [31] = target: T31, RPS6KA4(Kin.Dom.2-C-terminal) (Homo sapiens, UniProt O75676); assay: KINOMEscan; assay type: binding; details: read-out: Percent Control
# T31 construct: RPS6KA4(Kin.Dom.2-C-terminal); purchased Eurofins DiscoverX KINOMEscan (scanMAX 468)
# [32] = target: T32, SgK110 (Homo sapiens, UniProt P0C264); assay: KINOMEscan; assay type: binding; details: read-out: Percent Control
# T32 construct: purchased Eurofins DiscoverX KINOMEscan (scanMAX 468)
# [33] = target: T33, TEC (Homo sapiens, UniProt P42680); assay: KINOMEscan; assay type: binding; details: read-out: Percent Control
# T33 construct: purchased Eurofins DiscoverX KINOMEscan (scanMAX 468)
# [34] = target: T34, TLK2 (Homo sapiens, UniProt Q86UE8); assay: KINOMEscan; assay type: binding; details: read-out: Percent Control
# T34 construct: purchased Eurofins DiscoverX KINOMEscan (scanMAX 468)
# [35] = target: T35, TNIK (Homo sapiens, UniProt Q9UKE5); assay: KINOMEscan; assay type: binding; details: read-out: Percent Control
# T35 construct: purchased Eurofins DiscoverX KINOMEscan (scanMAX 468)
# [36] = target: T36, TRKC (Homo sapiens, UniProt Q16288); assay: KINOMEscan; assay type: binding; details: read-out: Percent Control
# T36 construct: purchased Eurofins DiscoverX KINOMEscan (scanMAX 468)
# [37] = target: T37, TRPM6 (Homo sapiens, UniProt Q9BX84); assay: KINOMEscan; assay type: binding; details: read-out: Percent Control
# T37 construct: purchased Eurofins DiscoverX KINOMEscan (scanMAX 468)
# [38] = target: T38, WEE2 (Homo sapiens, UniProt P0C1S8); assay: KINOMEscan; assay type: binding; details: read-out: Percent Control
# T38 construct: purchased Eurofins DiscoverX KINOMEscan (scanMAX 468)
# [39] = target: T39, YANK3 (Homo sapiens, UniProt Q86UX6); assay: KINOMEscan; assay type: binding; details: read-out: Percent Control
# T39 construct: purchased Eurofins (KINOMEscan, DiscoverX)
# [40] = target: T40, ZAK (Homo sapiens, UniProt Q9NYL2); assay: KINOMEscan; assay type: binding; details: read-out: Percent Control
# T40 construct: purchased Eurofins (KINOMEscan, DiscoverX)
# [41] = target: T41, Hs_PIM1 (Homo sapiens, UniProt P11309); set-up: method as in ref 13 (a number printed in a supplementary file, which may have a reference list of its own: not looked up in the article's list); details: DB18, cited from earlier work
# T41 construct: host or cells: Sf9 insect cells (baculovirus)
# T41 sequence (P11309 whole entry): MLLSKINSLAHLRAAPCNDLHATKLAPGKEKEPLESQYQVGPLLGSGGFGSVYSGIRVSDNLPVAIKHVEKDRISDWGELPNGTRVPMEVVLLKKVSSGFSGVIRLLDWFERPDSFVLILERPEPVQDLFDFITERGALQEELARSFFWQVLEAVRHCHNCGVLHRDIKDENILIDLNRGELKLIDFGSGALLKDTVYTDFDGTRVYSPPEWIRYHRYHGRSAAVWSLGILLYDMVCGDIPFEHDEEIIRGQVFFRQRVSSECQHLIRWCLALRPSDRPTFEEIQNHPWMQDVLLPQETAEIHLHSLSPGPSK
# T7 sequence (Q14004 whole entry): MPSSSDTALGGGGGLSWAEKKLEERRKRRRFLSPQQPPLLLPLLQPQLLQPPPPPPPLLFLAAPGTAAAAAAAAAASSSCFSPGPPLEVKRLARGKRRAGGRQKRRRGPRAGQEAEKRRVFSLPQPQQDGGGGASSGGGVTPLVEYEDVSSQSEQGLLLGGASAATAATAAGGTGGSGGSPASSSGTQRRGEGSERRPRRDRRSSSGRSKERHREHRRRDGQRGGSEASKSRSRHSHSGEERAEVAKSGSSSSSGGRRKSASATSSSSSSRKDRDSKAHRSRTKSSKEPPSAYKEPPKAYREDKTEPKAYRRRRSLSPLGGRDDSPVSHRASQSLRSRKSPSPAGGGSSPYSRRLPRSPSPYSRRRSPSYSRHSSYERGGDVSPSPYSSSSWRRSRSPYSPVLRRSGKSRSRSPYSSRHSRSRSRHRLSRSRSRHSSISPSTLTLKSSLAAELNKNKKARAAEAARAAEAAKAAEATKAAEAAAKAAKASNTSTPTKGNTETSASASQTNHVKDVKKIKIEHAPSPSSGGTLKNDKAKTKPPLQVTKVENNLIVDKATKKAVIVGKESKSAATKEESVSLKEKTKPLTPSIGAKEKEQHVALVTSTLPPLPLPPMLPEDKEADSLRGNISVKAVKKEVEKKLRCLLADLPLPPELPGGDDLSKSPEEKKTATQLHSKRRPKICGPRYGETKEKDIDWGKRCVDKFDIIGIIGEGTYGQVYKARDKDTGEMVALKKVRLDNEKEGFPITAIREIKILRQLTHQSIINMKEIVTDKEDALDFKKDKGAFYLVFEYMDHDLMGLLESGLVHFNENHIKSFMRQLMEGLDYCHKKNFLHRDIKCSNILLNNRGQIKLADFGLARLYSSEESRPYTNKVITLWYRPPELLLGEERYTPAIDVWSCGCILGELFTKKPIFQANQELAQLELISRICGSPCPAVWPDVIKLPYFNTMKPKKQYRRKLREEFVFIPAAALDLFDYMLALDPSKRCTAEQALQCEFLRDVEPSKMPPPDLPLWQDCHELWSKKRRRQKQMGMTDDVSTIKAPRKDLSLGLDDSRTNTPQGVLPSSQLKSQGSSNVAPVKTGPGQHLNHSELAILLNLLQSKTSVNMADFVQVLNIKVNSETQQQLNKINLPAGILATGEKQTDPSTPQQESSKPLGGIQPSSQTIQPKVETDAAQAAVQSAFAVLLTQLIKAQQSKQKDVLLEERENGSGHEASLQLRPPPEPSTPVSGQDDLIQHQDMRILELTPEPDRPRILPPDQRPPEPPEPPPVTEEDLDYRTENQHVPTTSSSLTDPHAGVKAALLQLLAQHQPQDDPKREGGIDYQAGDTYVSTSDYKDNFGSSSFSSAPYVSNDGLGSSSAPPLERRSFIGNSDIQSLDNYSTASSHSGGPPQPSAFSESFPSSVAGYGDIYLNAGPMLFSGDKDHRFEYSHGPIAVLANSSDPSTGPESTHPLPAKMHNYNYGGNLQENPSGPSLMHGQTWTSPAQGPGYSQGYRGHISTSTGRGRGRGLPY
# T16 sequence (Q05397 whole entry): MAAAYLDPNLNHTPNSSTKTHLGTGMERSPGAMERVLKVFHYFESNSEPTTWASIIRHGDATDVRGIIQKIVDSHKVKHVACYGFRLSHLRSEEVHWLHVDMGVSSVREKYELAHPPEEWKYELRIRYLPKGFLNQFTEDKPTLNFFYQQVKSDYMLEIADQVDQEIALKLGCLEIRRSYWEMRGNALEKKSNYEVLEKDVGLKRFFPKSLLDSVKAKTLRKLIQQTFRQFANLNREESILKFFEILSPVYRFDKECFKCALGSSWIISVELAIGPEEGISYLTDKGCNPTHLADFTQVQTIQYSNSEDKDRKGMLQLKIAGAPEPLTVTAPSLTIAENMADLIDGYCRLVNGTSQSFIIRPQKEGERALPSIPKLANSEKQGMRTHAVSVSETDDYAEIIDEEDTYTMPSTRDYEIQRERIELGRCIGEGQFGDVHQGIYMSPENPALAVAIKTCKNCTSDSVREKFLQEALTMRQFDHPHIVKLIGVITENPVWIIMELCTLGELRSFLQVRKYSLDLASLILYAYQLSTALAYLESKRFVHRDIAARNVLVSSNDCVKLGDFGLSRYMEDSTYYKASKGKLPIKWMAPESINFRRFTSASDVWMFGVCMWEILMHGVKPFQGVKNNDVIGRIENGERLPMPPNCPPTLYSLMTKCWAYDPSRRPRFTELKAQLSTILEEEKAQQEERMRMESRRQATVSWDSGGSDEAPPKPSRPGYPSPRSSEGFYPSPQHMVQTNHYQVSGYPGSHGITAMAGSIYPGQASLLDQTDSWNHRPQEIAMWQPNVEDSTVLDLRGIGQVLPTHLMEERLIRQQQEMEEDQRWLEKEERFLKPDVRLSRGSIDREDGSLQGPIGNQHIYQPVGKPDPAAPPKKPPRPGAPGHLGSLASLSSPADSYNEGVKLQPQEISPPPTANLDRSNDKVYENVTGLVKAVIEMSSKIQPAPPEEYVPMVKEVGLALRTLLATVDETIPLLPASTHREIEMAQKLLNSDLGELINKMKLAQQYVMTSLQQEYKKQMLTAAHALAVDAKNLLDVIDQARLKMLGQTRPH
# T32 sequence (P0C264 whole entry): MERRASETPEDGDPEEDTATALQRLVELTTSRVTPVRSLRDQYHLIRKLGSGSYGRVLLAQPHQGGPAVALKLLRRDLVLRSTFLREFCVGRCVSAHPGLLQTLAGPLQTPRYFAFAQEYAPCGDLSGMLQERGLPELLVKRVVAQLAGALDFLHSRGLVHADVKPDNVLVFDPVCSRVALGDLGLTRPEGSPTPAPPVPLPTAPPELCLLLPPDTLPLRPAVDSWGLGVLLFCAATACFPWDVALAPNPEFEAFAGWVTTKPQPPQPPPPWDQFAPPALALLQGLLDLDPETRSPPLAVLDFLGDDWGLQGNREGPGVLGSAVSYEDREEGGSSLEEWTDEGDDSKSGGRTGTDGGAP
# T12 sequence (P00533 25-1210 T790M/L858R): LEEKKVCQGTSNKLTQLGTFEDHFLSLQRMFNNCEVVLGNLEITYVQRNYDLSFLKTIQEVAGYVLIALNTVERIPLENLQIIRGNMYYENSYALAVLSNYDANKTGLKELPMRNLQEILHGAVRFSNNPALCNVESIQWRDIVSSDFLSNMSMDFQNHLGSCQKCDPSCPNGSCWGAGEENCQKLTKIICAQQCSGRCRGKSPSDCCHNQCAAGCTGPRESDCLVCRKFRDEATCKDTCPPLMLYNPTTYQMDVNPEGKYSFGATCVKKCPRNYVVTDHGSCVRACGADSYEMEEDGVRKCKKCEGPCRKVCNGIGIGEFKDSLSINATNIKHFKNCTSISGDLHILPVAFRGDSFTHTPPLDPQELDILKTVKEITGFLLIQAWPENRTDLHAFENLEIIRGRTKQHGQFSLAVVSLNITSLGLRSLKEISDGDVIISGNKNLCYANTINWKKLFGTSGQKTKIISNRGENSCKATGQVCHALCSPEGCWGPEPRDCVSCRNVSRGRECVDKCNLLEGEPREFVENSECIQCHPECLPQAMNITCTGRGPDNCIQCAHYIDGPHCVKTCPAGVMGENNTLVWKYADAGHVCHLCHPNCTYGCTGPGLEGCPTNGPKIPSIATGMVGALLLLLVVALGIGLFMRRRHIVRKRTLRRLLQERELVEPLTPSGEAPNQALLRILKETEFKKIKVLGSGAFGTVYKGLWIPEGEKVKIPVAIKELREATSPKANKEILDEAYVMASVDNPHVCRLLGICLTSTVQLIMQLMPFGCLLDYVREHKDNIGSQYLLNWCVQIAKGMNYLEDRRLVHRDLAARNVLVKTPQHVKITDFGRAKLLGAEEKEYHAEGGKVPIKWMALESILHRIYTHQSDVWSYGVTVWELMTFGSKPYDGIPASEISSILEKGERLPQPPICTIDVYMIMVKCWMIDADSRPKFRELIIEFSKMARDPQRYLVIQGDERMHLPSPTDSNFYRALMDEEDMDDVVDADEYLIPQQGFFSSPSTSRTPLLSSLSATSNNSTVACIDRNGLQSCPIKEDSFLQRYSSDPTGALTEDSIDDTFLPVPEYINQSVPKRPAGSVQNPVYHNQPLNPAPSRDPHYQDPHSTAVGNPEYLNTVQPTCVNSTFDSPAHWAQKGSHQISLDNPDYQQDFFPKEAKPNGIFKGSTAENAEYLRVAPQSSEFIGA
# T38 sequence (P0C1S8 whole entry): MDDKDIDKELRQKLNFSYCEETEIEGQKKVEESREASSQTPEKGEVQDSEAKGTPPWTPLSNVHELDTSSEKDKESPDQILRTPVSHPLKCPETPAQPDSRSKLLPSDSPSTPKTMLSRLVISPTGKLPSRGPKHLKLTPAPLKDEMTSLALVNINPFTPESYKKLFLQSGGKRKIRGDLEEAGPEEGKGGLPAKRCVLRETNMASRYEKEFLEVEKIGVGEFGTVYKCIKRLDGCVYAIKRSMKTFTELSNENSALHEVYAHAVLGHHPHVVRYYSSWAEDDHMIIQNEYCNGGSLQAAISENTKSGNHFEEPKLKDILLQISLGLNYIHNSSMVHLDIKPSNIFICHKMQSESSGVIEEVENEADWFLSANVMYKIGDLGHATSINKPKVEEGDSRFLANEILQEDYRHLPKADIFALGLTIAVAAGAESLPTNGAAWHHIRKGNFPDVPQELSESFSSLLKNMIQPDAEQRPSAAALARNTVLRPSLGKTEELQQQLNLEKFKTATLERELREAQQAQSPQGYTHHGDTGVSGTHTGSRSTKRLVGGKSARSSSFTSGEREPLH
structure (smiles),measurement,setting,value
Cc1ccc(-n2cc(COc3cccc4cnc(Nc5cccc(Cl)c5)nc34)nn2)c([N+](=O)[O-])c1 [DB18],remaining binding at 1 µM,[1],99%
same,remaining binding at 1 µM,[2],97%
same,remaining binding at 1 µM,[3],88%
same,remaining binding at 1 µM,[4],98%
same,remaining binding at 1 µM,[5],97%
same,remaining binding at 1 µM,[6],96%
same,remaining binding at 1 µM,[7],100%
same,remaining binding at 1 µM,[8],88%
same,remaining binding at 1 µM,[9],100%
same,remaining binding at 1 µM,[10],100%
same,remaining binding at 1 µM,[11],93%
same,remaining binding at 1 µM,[12],100%
same,remaining binding at 1 µM,[13],100%
same,remaining binding at 1 µM,[14],100%
same,remaining binding at 1 µM,[15],100%
same,remaining binding at 1 µM,[16],100%
same,remaining binding at 1 µM,[17],100%
same,remaining binding at 1 µM,[18],83%
same,remaining binding at 1 µM,[19],100%
same,remaining binding at 1 µM,[20],100%
same,remaining binding at 1 µM,[21],89%
same,remaining binding at 1 µM,[22],100%
same,remaining binding at 1 µM,[23],100%
same,remaining binding at 1 µM,[24],100%
same,remaining binding at 1 µM,[25],100%
same,remaining binding at 1 µM,[26],100%
same,remaining binding at 1 µM,[27],100%
same,remaining binding at 1 µM,[28],100%
same,remaining binding at 1 µM,[29],82%
same,remaining binding at 1 µM,[30],100%
same,remaining binding at 1 µM,[31],100%
same,remaining binding at 1 µM,[32],85%
same,remaining binding at 1 µM,[33],100%
same,remaining binding at 1 µM,[34],100%
same,remaining binding at 1 µM,[35],100%
same,remaining binding at 1 µM,[36],59%
same,remaining binding at 1 µM,[37],91%
same,remaining binding at 1 µM,[38],100%
same,remaining binding at 1 µM,[39],100%
same,remaining binding at 1 µM,[40],97%
same,% of residual activity Hs_PIM1,[41]; 1 µM,97%
same,% of residual activity Hs_PIM1,[41]; 10 µM,81%
